Assay results reported in patent publication US20240287046A1, “COMPOUNDS AND RADIOLIGANDS FOR TARGETING NEUROTENSIN RECEPTOR AND USES THEREOF” (Full-Life Technologies HK Limited, priority 2022, published 2024).

Assays:
[1] = test system: ASPC-1 tumor-bearing mice; test: Biodistribution of radionuclide labeled complexes in ASPC-1 tumor-bearing mice; format: in vivo, BALB/c nude mice
In short: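 Radiolabeled compound (~30-50 μCi, ~1.11-1.85 MBq, specific activity 30-250 μCi/nmol) was injected i.v. via tail vein into nude mice carrying 0.05-0.50 g subcutaneous NTSR-1-positive human tumors. At set times, tissues were collected, weighed and γ-counted; % ID and % ID/g were calculated.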

[2] = test system: pancreatic cancer patients; settings: cited from earlier work
[3] = test system: ASPC-1 tumor; test: In vivo efficacy of ^225Ac therapy; settings: ASPC-1 tumor-bearing mice; for tumor inhibition compared to the vehicle group: single dose of 18, 37 or 74 KBq; for dose sufficient to achieve the maximal effect: single dose
Method: In vivo efficacy of the ^177Lu labeled complexes and ^225Ac labeled complexes of the present application was evaluated in ASPC-1 tumor-bearing mice. For ^177Lu therapy study, animals in each group were dosed with vehicle or 0.6 mCi activity of the radiolabeled complexes at Day 1 and Day 5, respectively. For ^225Ac therapy studies, animals in each group were administered with a single dose of vehicle, 18, 37 or 74 KBq activity of the radiolabeled complexes, respectively.
The tumor volume (V) was determined according to the equation (V=[…]×L×W×H) at different time points, where L is the longest axis and W is the perpendicular axis to L, and H is the perpendicular axis to L and W plane. Endpoint (sacrifice) criteria were defined as either when the tumor volume exceeded 1.5 cm^3, or 20% body weight loss.

[4] = test system: ASPC-1 tumor-bearing mice; test: PET/CT imaging of ^68Ga-labeled complexes; format: in vivo; settings: over 180 minutes
Method: ASPC-1 tumor-bearing mice were IV-injected with 150 μCi of ^68Ga-labeled compounds, anesthetized under 2% isoflurane/oxygen gas and placed on the scanner. PET images were acquired in one bed position for 10 min using an animal PET/SPECT/CT (Inliview-3000B). Whole-body PET images were acquired at 30, 60, 120 and 180 minutes after injection of the radiotracers.

[5] = target: T1, human NTSR-1 (Homo sapiens (Human), UniProt P30989); test: radioligand competitive binding assay using ^177Lu labeled C-1 as reference radioligand
In short: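 HT-29 cells expressing human NTSR-1 incubated with ¹⁷⁷Lu-C-1 (0.55 μCi/well) and test compound in RPMI-1640 + 0.25% BSA, 1 h at 37 °C (n=3). Unbound label removed by filtration, cell-bound radioactivity gamma-counted; IC50 from nonlinear regression of displacement.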

[6] = target: T1, human NTSR-1; test: FLIPR assay, inhibition of Neurotensin-induced intracellular-calcium mobilization; format: cell-based; settings: HEK293 cells stably expressing human NTSR-1, mean; read-out: IC50 (nM) in FLIPR Assays
Method: Binding affinities of the representative compounds were also evaluated by FLIPR assay. Neurotensin receptor 1 belongs to the G-protein coupled receptors (GPCR) family. Activation of NTSR-1 by its ligand Neurotensin can induce intracellular-calcium mobilization. In FLIPR assay, the test compound and Neurotensin were incubated together with cells expressing NTSR-1 to measure inhibition of the intracellular-calcium mobilization by the test compound so that to evaluate its binding affinity.
Briefly, HEK293 cells stably expressing human NTSR-1 were plated in 384-well plates. 20 ul cell suspension at a concentration of 10×10^5 per ml was seeded in each well and incubated at 37° C. 5% CO2 overnight. Then the cells in each well were mixed with 20 ul probenecid assay buffer, 20 ul 8 uM Fluo-4 Direct™ Loading Buffer, 6×EC80 of Neurotensin and 10 μl of the diluted test compound, and incubated at 37° C. 5% CO2 for 50 min followed by incubation at room temperature for 10 min. The plate was then subject to FLIPR analysis.

T1 sequence (P30989 whole entry): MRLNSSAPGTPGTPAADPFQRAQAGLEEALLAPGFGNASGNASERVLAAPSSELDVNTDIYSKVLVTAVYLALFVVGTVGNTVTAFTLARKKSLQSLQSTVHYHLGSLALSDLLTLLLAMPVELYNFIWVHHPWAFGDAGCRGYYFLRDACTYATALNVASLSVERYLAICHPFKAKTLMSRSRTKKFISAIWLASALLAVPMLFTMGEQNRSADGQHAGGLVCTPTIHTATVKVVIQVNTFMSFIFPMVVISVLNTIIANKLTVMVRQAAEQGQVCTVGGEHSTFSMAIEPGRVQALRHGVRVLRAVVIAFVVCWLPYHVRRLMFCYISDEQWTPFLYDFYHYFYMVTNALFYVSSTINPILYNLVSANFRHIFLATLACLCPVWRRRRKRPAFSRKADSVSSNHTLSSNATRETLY

## COc1cccc(OC)c1-c1cc(C(=O)NC2(C(=O)O)C3CC4CC(C3)CC2C4)nn1-c1ccc(C(=O)N(C)CCCN(C)CCCN(C)C(=O)CN2CCN(CC(=O)[O-])CCN(CC(=O)[O-])CCN(CC(=O)[O-])CC2)cc1C(C)C.[177Lu+3] (stereo not drawn) [^177Lu-C-2, reference compound]
[1]; Blood, 1 h
  % ID/g (1 h) Blood: 13.87 ± 0.17 % ID/g
[1]; Blood, 4 h
  % ID/g (4 h) Blood: 4.46 ± 0.64 % ID/g
[1]; Blood, 24 h
  % ID/g (24 h) Blood: 0.31 ± 0.1 % ID/g
[1]; Blood, 72 h
  % ID/g (72 h) Blood: 0.09 ± 0.01 % ID/g
[1]; Femur, 1 h
  % ID/g (1 h) Femur: 1.34 ± 0.23 % ID/g
[1]; Femur, 4 h
  % ID/g (4 h) Femur: 0.89 ± 0.11 % ID/g
[1]; Femur, 24 h
  % ID/g (24 h) Femur: 0.22 ± 0.13 % ID/g
[1]; Femur, 72 h
  % ID/g (72 h) Femur: 0.12 ± 0.03 % ID/g
[1]; Heart, 1 h
  % ID/g (1 h) Heart: 4.83 ± 1.1 % ID/g
[1]; Heart, 4 h
  % ID/g (4 h) Heart: 1.72 ± 0.18 % ID/g
[1]; Heart, 24 h
  % ID/g (24 h) Heart: 0.37 ± 0.07 % ID/g
[1]; Heart, 72 h
  % ID/g (72 h) Heart: 0.16 ± 0.04 % ID/g
[1]; Intestine, 1 h
  % ID/g (1 h) Intestine: 1.98 ± 0.63 % ID/g
[1]; Intestine, 4 h
  % ID/g (4 h) Intestine: 1.62 ± 0.41 % ID/g
[1]; Intestine, 24 h
  % ID/g (24 h) Intestine: 0.44 ± 0.11 % ID/g
[1]; Intestine, 72 h
  % ID/g (72 h) Intestine: 0.15 ± 0.06 % ID/g
[1]; Kidney, 1 h
  % ID/g (1 h) Kidney: 3.34 ± 1.53 % ID/g
[1]; Kidney, 4 h
  % ID/g (4 h) Kidney: 2.6 ± 0.93 % ID/g
[1]; Kidney, 24 h
  % ID/g (24 h) Kidney: 1.36 ± 0.42 % ID/g
[1]; Kidney, 72 h
  % ID/g (72 h) Kidney: 0.46 ± 0.08 % ID/g
[1]; Liver, 1 h
  % ID/g (1 h) Liver: 2.01 ± 1.1 % ID/g
[1]; Liver, 4 h
  % ID/g (4 h) Liver: 2.51 ± 0.12 % ID/g
[1]; Liver, 24 h
  % ID/g (24 h) Liver: 1.53 ± 0.93 % ID/g
[1]; Liver, 72 h
  % ID/g (72 h) Liver: 0.99 ± 0.37 % ID/g
[1]; Lung, 1 h
  % ID/g (1 h) Lung: 3.67 ± 2.25 % ID/g
[1]; Lung, 4 h
  % ID/g (4 h) Lung: 1.92 ± 0.99 % ID/g
[1]; Lung, 24 h
  % ID/g (24 h) Lung: 0.69 ± 0.14 % ID/g
[1]; Lung, 72 h
  % ID/g (72 h) Lung: 0.23 ± 0.06 % ID/g
[1]; Muscle, 1 h
  % ID/g (1 h) Muscle: 0.93 ± 0.21 % ID/g
[1]; Muscle, 4 h
  % ID/g (4 h) Muscle: 0.31 ± 0.1 % ID/g
[1]; Muscle, 24 h
  % ID/g (24 h) Muscle: 0.1 ± 0.05 % ID/g
[1]; Muscle, 72 h
  % ID/g (72 h) Muscle: 0.06 ± 0.03 % ID/g
[1]; Pancreas, 1 h
  % ID/g (1 h) Pancreas: 0.8 ± 0.47 % ID/g
[1]; Pancreas, 4 h
  % ID/g (4 h) Pancreas: 0.27 ± 0.06 % ID/g
[1]; Pancreas, 24 h
  % ID/g (24 h) Pancreas: 0.1 ± 0.02 % ID/g
[1]; Pancreas, 72 h
  % ID/g (72 h) Pancreas: 0.07 ± 0.03 % ID/g
[1]; Spleen, 1 h
  % ID/g (1 h) Spleen: 1.25 ± 0.78 % ID/g
[1]; Spleen, 4 h
  % ID/g (4 h) Spleen: 0.49 ± 0.04 % ID/g
[1]; Spleen, 24 h
  % ID/g (24 h) Spleen: 0.35 ± 0.3 % ID/g
[1]; Spleen, 72 h
  % ID/g (72 h) Spleen: 0.34 ± 0.1 % ID/g
[1]; Stomach, 1 h
  % ID/g (1 h) Stomach: 1.35 ± 0.42 % ID/g
[1]; Stomach, 4 h
  % ID/g (4 h) Stomach: 0.6 ± 0.23 % ID/g
[1]; Stomach, 24 h
  % ID/g (24 h) Stomach: 0.15 ± 0.04 % ID/g
[1]; Stomach, 72 h
  % ID/g (72 h) Stomach: 0.05 ± 0 % ID/g
[1]; Tumor, 1 h
  % ID/g (1 h) Tumor: 10.34 ± 5.66 % ID/g
[1]; Tumor, 4 h
  % ID/g (4 h) Tumor: 16.13 ± 4.47 % ID/g
[1]; Tumor, 24 h
  % ID/g (24 h) Tumor: 12.6 ± 3.52 % ID/g
[1]; Tumor, 72 h
  % ID/g (72 h) Tumor: 8.03 ± 5.76 % ID/g
[2]; human study
  dose limiting organ: kidney

## COc1cccc(OC)c1-c1cc(C(=O)NC2(C(=O)O)C3CC4CC(C3)CC2C4)nn1-c1ccc(OCCCN(C)CCCN(C)C(=O)CN2CCN(CC(=O)[O-])CCN(CC(=O)[O-])CCN(CC(=O)[O-])CC2)cc1C(C)C.[225Ac+3] (stereo not drawn) [^225Ac—I-7]
[3]
  tumor inhibition compared to the vehicle group: significant tumor inhibition
  dose sufficient to achieve the maximal effect: 37 KBq

## COc1cccc(OC)c1-c1cc(C(=O)NC2(C(=O)O)C3CC4CC(C3)CC2C4)nn1-c1ccc(N(CCCN(C)C)C(=O)COCCOCCNC(=O)CN2CCN(CC(=O)[O-])CCN(CC(=O)[O-])CCN(CC(=O)[O-])CC2)cc1C(C)C.[68Ga+3] (stereo not drawn) [^68Ga—I-6]
[4]; ASPC-1 tumor-bearing mice
  tumor uptake/retention compared to ^68Ga—C-5 (PET/CT): stronger tumor uptake/retention
[4]; such as tumor to liver
  tumor to normal contrast compared to ^68Ga—C-5 (PET/CT): better tumor to normal contrast

## COc1cccc(OC)c1-c1cc(C(=O)NC2(C(=O)O)C3CC4CC(C3)CC2C4)nn1-c1ccc(NC(=O)CCCN(C)CCCN(C)C(=O)CN2CCN(CC(=O)[O-])CCN(CC(=O)[O-])CCN(CC(=O)[O-])CC2)cc1C(C)C.[225Ac+3] (stereo not drawn) [^225Ac—I-5]
[3]
  tumor inhibition compared to the vehicle group: significant tumor inhibition
  dose sufficient to achieve the maximal effect: 37 KBq

## COc1cccc(OC)c1-c1cc(C(=O)NC2(C(=O)O)C3CC4CC(C3)CC2C4)nn1-c1ccc(C(=O)N(C)CCCN(C)CCCN(C)C(=O)CN2CCN(CC(=O)O)CCN(CC(=O)O)CCN(CC(=O)O)CC2)cc1C(C)C (stereo not drawn) [Compound C-2, 2,2′,2″-(10-(2-((3-((3-(4-(3-((2-carboxyadamantan-2-yl)carbamoyl)-5-(2,6-dimethoxyphenyl)-1H-pyrazol-1-yl)-3-isopropyl-N-methylbenzamido)propyl)(methyl)amino)propyl)(methyl)amino)-2-oxoethyl)-1,4,7,10-tetraazacyclododecane-1,4,7-triyl)triacetic acid, reference compound]
[5]; Mean IC50 of C-1/Mean IC50 of the test compound
  Relative Binding Affinity: 7.2
[5]; competitive radioligand binding assay using HT-29 cells
  potency relative to SR142948: about 40%
[6]
  IC50: 45.4 nM
[1]; ^177Lu-labeled complex
  AUC (0-72 h) ratio Tumor/Blood: 9.0
  AUC (0-72 h) ratio Tumor/Kidney: 8.80
  AUC (0-72 h) ratio Tumor/Liver: 7.61
  AUC (0-72 h) ratio Tumor/Lung: 14.2
[2]; ^177Lu-chelated form, small number of pancreatic cancer patients
  tumor uptake of the radioligand: clearly observed
